Data as given in patent US20240216344A1, “THIAZOLIDINEDIONE ANALOGS FOR THE TREATMENT OF NAFLD AND METABOLIC DISEASES” (Cirius Therapeutics, Inc., priority 2019, published 2024).

Tested on: subjects with biopsy proven NASH with fibrosis and no cirrhosis
Assay: EMMINENCE Phase 2b trial, interim analysis at six months
Type: in vivo, human
Settings: for Peripheral edema present: 6 months
Excerpt: Detailed Description: This is a randomized, double-blinded study of three doses of MSDC-0602K or placebo given orally once daily to subjects with biopsy proven NASH with fibrosis and no cirrhosis. Visits to the clinic will be at baseline, 1, 2, 3, 6, 9, and 12 months, with one 2-week follow-up visit. Safety will be assessed by monitoring of vital signs, 12 lead electrocardiogram (ECG), physical examinations, safety labs, and adverse events (AEs).
An interim analysis of the EMMINENCE Phase 2b trial was conducted in the first 328 subjects who reached their six-month follow-up visit. […] In the two highest dose groups, at least 50% of patients with elevated baseline Alanine transaminase (ALT) or Aspartate Aminotransferase (AST) improved into the normal range at six months, as shown in Table 3.
The subjects included in this interim analysis had significant liver disease, as established by liver biopsy, with an average NAS at baseline of 5.3. […] Overall, baseline characteristics were well-balanced across treatment groups.

COc1cccc(C(=O)COc2ccc(CC3SC(=O)NC3=O)cc2)c1 (stereo not shown) [MSDC-0602K]
Peripheral edema present (62.5 mg): 7.80% | Percentage of patients with high baseline ALT who returned to normal range (62.5 mg, six months): 29% | Percentage of patients with high baseline AST who returned to normal range (62.5 mg, six months): 36% | Placebo-corrected reduction in ALT (125 mg cohort, six months): 14.3 U/L | Placebo-corrected reduction in AST (125 mg cohort, six months): 7.9 U/L | Peripheral edema present (125 mg): 13.50% | Percentage of patients with high baseline ALT who returned to normal range (125 mg, six months): 60% | Percentage of patients with high baseline AST who returned to normal range (125 mg, six months): 50% | Placebo-corrected reduction in ALT (250 mg cohort, six months): 10.6 U/L | Placebo-corrected reduction in AST (250 mg cohort, six months, not significant): 4 U/L | Peripheral edema present (250 mg): 11.10% | Percentage of patients with high baseline ALT who returned to normal range (250 mg, six months): 56% | Percentage of patients with high baseline AST who returned to normal range (250 mg, six months): 52% | fasting glucose, HbA1c, insulin levels, and HOMA-IR (all subjects, 125 mg and 250 mg doses, six months): statistically significant improvements | Adiponectin (all treatment cohorts, dose dependent, six months): increased significantly | overall adverse event rates (placebo and all doses): similar | effect on lipids (six months): neutral effect | patients with elevated baseline ALT or AST improved into the normal range (two highest dose groups, six months): at least 50% | C-Reactive Protein levels (two lowest doses, six months): decrease
